Measurements as given in US9006265B2, “Substituted fused pyrimidinones and dihydropyrimidinones” (Bayer Intellectual Property GmbH, priority 2010, dated 2015).

How the values were obtained:
[1] = test system: BRSNS; assay: Drought stress test on crop plants in greenhouse, spray application; type: in vivo, Brassica napes; conditions: efficacy = percentage reduction in intensity of damage, mean of three results
Protocol: (§1) Seeds of monocotyledonous and dicotyledonous crop plants were laid out in sandy loam in wood-fiber pots, covered with soil and cultivated in a greenhouse under good growth conditions. The test plants were treated at the early leaf stage (BBCH10-BBCH13). To ensure uniform water supply before commencement of stress, the potted plants were supplied with the maximum amount of water immediately beforehand by dam irrigation and, after application, transferred in plastic inserts in order to prevent subsequent, excessively rapid drying. The inventive compounds, formulated in the form of wettable powders (WP), wettable granules (WG), suspension concentrates (SC) or emulsion concentrates (EC), were sprayed onto the green parts of the plants as an aqueous suspension at an equivalent water application rate of 600 l/ha with addition of 0.2% wetting agent (agrotin). Substance application is followed immediately by stress treatment of the plants (cold or drought stress). For cold stress treatment, the plants were kept under the following controlled conditions: • “day”: 12 hours with illumination at 8° C. • “night”: 12 hours without illumination at 1° C.
(§2) Drought stress was induced by gradual drying out under the following conditions: • “day”: 14 hours with illumination at 26° C. • “night”: 10 hours without illumination at 18° C.
(§3) The duration of the respective stress phases was guided mainly by the state of the untreated (=treated with blank formulation without test compound), stressed control plants and thus varied from crop to crop. It was ended (by re-irrigating or transfer to a greenhouse with good growth conditions) as soon as irreversible damage was observed on the untreated, stressed control plants. In the case of dicotyledonous crops, for example oilseed rape and soybeans, the duration of the drought stress phase varied between 3 and 5 days, in the case of monocotyledonous crops, for example wheat, barley or corn, between 6 and 10 days. The duration of the cold stress phase varied between 12 and 14 days.
(§4) The end of the stress phase was followed by an approx. 5-7-day recovery phase, during which the plants were once again kept under good growth conditions in a greenhouse. In order to rule out any influence of the effects observed by any fungicidal action of the test compounds, it was additionally ensured that the tests proceeded without fungal infection and without infection pressure.
(§5) After the recovery phase had ended, the intensities of damage were rated in visual comparison to untreated, unstressed controls of the same age (in the case of drought stress) or the same growth stage (in the case of cold stress). The intensity of damage was first assessed as a percentage (100%=plants have died, 0%=like control plants). These values were then used to calculate the efficacy of the test compounds (=percentage reduction in the intensity of damage as a result of substance application) by the following formula:
(§6) [formula] EF: efficacy (%) DVus: damage value of the untreated, stressed control DVts: damage value of the plants treated with test compound
(§7) The tables A-1 and B-1 to B-4 below list mean values in each case from three results of the same test.
(§8) Efficacies of selected compounds of the formula (I) under drought stress using the examples of HORVS, BRSNS, ZEAMX und TRZAS: […]

[2] = test system: ZEAMX; assay: as above; type: in vivo, Zea mays; conditions: efficacy = percentage reduction in intensity of damage, mean of three results
Protocol: as §1, §2, §3, §4, §5, §6, §7, §8

[3] = test system: ZEAMX; assay: Cold stress test on crop plants in greenhouse, spray application; type: in vivo, Zea mays; conditions: efficacy = percentage reduction in intensity of damage, mean of three results
Protocol: Seeds of monocotyledonous and dicotyledonous crop plants were laid out in sandy loam in wood-fiber pots, covered with soil and cultivated in a greenhouse under good growth conditions. The test plants were treated at the early leaf stage (BBCH10-BBCH13). To ensure uniform water supply before commencement of stress, the potted plants were supplied with the maximum amount of water immediately beforehand by dam irrigation and, after application, transferred in plastic inserts in order to prevent subsequent, excessively rapid drying. The inventive compounds, formulated in the form of wettable powders (WP), wettable granules (WG), suspension concentrates (SC) or emulsion concentrates (EC), were sprayed onto the green parts of the plants as an aqueous suspension at an equivalent water application rate of 600 l/ha with addition of 0.2% wetting agent (agrotin). Substance application is followed immediately by stress treatment of the plants (cold or drought stress). For cold stress treatment, the plants were kept under the following controlled conditions: • “day”: 12 hours with illumination at 8° C. • “night”: 12 hours without illumination at 1° C. The duration of the respective stress phases was guided mainly by the state of the untreated (=treated with blank formulation without test compound), stressed control plants and thus varied from crop to crop. It was ended (by re-irrigating or transfer to a greenhouse with good growth conditions) as soon as irreversible damage was observed on the untreated, stressed control plants. In the case of dicotyledonous crops, for example oilseed rape and soybeans, the duration of the drought stress phase varied between 3 and 5 days, in the case of monocotyledonous crops, for example wheat, barley or corn, between 6 and 10 days. The duration of the cold stress phase varied between 12 and 14 days. The end of the stress phase was followed by an approx. 5-7-day recovery phase, during which the plants were once again kept under good growth conditions in a greenhouse. In order to rule out any influence of the effects observed by any fungicidal action of the test compounds, it was additionally ensured that the tests proceeded without fungal infection and without infection pressure. After the recovery phase had ended, the intensities of damage were rated in visual comparison to untreated, unstressed controls of the same age (in the case of drought stress) or the same growth stage (in the case of cold stress). The intensity of damage was first assessed as a percentage (100%=plants have died, 0%=like control plants). These values were then used to calculate the efficacy of the test compounds (=percentage reduction in the intensity of damage as a result of substance application) by the following formula: [formula] EF: efficacy (%) DVus: damage value of the untreated, stressed control DVts: damage value of the plants treated with test compound The tables A-1 and B-1 to B-4 below list mean values in each case from three results of the same test. Efficacies of selected compounds of the formula (I) under cold stress using the example of ZEAMX: […]

[4] = test system: TRZAS; assay: Drought stress test on crop plants in greenhouse, spray application; type: in vivo, Triticum aestivum; conditions: efficacy = percentage reduction in intensity of damage, mean of three results
Protocol: as §1, §2, §3, §4, §5, §6, §7, §8

O=c1[nH]c2c(-c3ccc(Cl)cc3)c(C(F)(F)F)nn2c2ccccc12 [I.3-17, 3-(4-Chlorophenyl)-2-(trifluoromethyl)pyrazolo[1,5-a]quinazolin-5(4H)-one]
EF (BRSNS) ([1]; dosage 250 g/ha): >5% | EF (ZEAMX) ([2]; dosage 250 g/ha): >5%

NC(=O)c1cnn2c1[nH]c(=O)c1ccccc12 [I.3-31]
EF (ZEAMX) ([3]; dosage 250 g/ha): >5% | EF (BRSNS) ([1]; dosage 25 g/ha): >5% | EF (TRZAS) ([4]; dosage 25 g/ha): >5% | EF (ZEAMX) ([2]; dosage 250 g/ha): >5%

CCOC(=O)c1c(C#N)nn2c1[nH]c(=O)c1ccccc12 [I.3-32]
EF (ZEAMX) ([2]; dosage 250 g/ha): >5%

COc1cccc2c1NC(CCc1ccccc1)NC2=O (stereo not drawn) [I.4-16]
EF (BRSNS) ([1]; dosage 250 g/ha): >5%

Cc1cccc2c1NC(c1ccc(C(F)(F)F)cc1)NC2=O (stereo not drawn) [I.4-21]
EF (ZEAMX) ([2]; dosage 1000 g/ha): >5%

O=C1NC(c2ccoc2)Nc2ccccc21 (stereo not drawn) [I.4-51]
EF (ZEAMX) ([3]; dosage 250 g/ha): >5%

CN1c2ccccc2C(=O)NC1c1cnn(C)c1 (stereo not drawn) [I.4-63]
EF (ZEAMX) ([3]; dosage 50 g/ha): >5%

O=C1NC(c2ccc(Cl)cc2)Nc2ccccc21 (stereo not drawn) [I.4-71, 2-(4-Chlorophenyl)-2,3-dihydroquinazolin-4(1H)-one]
melting point: 190 °C

COc1cccc2c1NC(/C=C/c1ccccc1)NC2=O (stereo not drawn) [I.4-75, 2R,S-8-methoxy-2-[(E)-2-phenylethenyl]-2,3-dihydroquinazolin-4(1H)-one]
EF (BRSNS) ([1]; dosage 250 g/ha): >5% | EF (TRZAS) ([4]; dosage 250 g/ha): >5%

Cc1cccc2c1NC(c1ccoc1)NC2=O (stereo not drawn) [I.4-84]
EF (ZEAMX) ([2]; dosage 250 g/ha): >5%

CN1c2ccccc2C(=O)NC1c1ccoc1 (stereo not drawn) [I.4-85]
EF (ZEAMX) ([2]; dosage 250 g/ha): >5%

COc1cc(/C=C/C2NC(=O)c3ccccc3N2C)cc(OC)c1O (stereo not drawn) [I.4-90]
EF (BRSNS) ([1]; dosage 250 g/ha): >5%

CCn1ccc(C2NC(=O)c3cccc(OC)c3N2)n1 (stereo not drawn) [I.4-97]
EF (TRZAS) ([4]; dosage 250 g/ha): >5% | EF (ZEAMX) ([2]; dosage 250 g/ha): >5%

CCn1nccc1C1NC(=O)c2cccc(C)c2N1 (stereo not drawn) [I.4-115]
EF (BRSNS) ([1]; dosage 250 g/ha): >5% | EF (TRZAS) ([4]; dosage 250 g/ha): >5%

O=C1NC(c2ccc(Cl)cc2)Nc2cccc(F)c21 (stereo not drawn) [I.4-165]
EF (ZEAMX) ([2]; dosage 250 g/ha): >5%

O=C1NC(c2ccc(F)cc2F)Nc2c(Cl)cccc21 (stereo not drawn) [I.4-175]
EF (ZEAMX) ([2]; dosage 250 g/ha): >5%

O=C1NC(c2ccsc2)Nc2cccc(F)c21 (stereo not drawn) [I.4-177]
EF (ZEAMX) ([2]; dosage 250 g/ha): >5%

Cc1cccc2c1C(=O)NC(c1ccsc1)N2 (stereo not drawn) [I.4-180]
EF (ZEAMX) ([2]; dosage 250 g/ha): >5%

O=C1NC(c2ccsc2)Nc2c(Cl)cccc21 (stereo not drawn) [I.4-181]
EF (BRSNS) ([1]; dosage 250 g/ha): >5% | EF (ZEAMX) ([2]; dosage 250 g/ha): >5%

O=C1NC(CCc2ccccc2)Nc2cccc(F)c21 (stereo not drawn) [I.4-184]
EF (ZEAMX) ([3]; dosage 250 g/ha): >5%

Cc1ccc(C2NC(=O)c3c(C)cccc3N2)cc1 (stereo not drawn) [I.4-193]
EF (TRZAS) ([4]; dosage 250 g/ha): >5%

O=C1NC(c2ccc(Br)cc2F)Nc2cccc(F)c21 (stereo not drawn) [I.4-227]
EF (TRZAS) ([4]; dosage 250 g/ha): >5%

O=C1NC(c2ccoc2)Nc2cccc(Cl)c21 (stereo not drawn) [I.4-232]
EF (BRSNS) ([1]; dosage 250 g/ha): >5% | EF (TRZAS) ([4]; dosage 250 g/ha): >5%

Cc1ccc(C2NC(=O)c3cccc(Cl)c3N2)c(Cl)c1 (stereo not drawn) [I.4-295]
EF (ZEAMX) ([2]; dosage 250 g/ha): >5%

CCN(CC)CCN1C(=O)c2cccc(OC)c2NC1c1ccc(C(F)(F)F)cc1Cl (stereo not drawn) [I.4-324]
EF (ZEAMX) ([2]; dosage 250 g/ha): >5%

CCN(CC)CCN1C(=O)c2cccc(OC)c2NC1c1ccnn1C (stereo not drawn) [I.4-330]
EF (TRZAS) ([4]; dosage 250 g/ha): >5% | EF (ZEAMX) ([2]; dosage 250 g/ha): >5%
